Measured values reported in patent US10065990B2, “Cyclic peptide compound, and preparation method, pharmaceutical composition and use thereof” (HANGZHOU GUANYU BIO-MEDICAL CO., LTD, priority 2013, dated 2018).
Read-outs that look alike come from different tables or passages of the source.

Tests used:
HDAC7 = target: T1, HDAC7 (Homo sapiens, UniProt Q8WUI4); experiment: HDAC biochemical activity measurement (fluorescent substrate deacetylation);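 also: fluorogenic deacetylation assay using acetyl-lysine substrate at 20 µM, enzyme and compound incubated 30 min at 37 °C, then developer added, fluorescence read at 360/460 nm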; settings: HDAC7; 37° C. 30 minutes
T1 sequence (Q8WUI4 1-952): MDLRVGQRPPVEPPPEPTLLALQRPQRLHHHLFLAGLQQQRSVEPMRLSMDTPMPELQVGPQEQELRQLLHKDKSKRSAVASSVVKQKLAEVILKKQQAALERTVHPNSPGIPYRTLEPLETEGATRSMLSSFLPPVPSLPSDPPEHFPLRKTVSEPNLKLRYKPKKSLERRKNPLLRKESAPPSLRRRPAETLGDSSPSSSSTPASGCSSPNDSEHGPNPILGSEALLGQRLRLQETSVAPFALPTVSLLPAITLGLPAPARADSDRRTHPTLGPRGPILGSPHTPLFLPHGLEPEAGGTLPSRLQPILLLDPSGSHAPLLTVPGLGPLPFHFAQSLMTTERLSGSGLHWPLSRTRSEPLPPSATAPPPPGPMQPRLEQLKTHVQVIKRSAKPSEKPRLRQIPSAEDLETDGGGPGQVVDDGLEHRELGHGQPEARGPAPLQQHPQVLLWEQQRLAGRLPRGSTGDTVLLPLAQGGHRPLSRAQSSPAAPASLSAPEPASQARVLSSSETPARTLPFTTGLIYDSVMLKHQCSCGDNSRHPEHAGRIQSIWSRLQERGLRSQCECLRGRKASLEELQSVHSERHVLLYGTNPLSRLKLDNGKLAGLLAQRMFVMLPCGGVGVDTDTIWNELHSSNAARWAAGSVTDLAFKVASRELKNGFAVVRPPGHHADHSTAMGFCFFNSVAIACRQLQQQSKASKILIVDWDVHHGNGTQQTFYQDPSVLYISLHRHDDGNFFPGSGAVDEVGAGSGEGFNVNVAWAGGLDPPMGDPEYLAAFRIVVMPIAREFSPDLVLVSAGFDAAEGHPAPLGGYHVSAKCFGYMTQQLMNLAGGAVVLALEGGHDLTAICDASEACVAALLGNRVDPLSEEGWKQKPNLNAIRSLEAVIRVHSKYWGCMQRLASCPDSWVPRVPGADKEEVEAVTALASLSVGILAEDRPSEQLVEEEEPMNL
Experimental: The chemical activity of the compound is determined according to the degree of deacetylation inhibition of the HDAC enzyme. This experiment measured the degree of deacetylation related to tumor proliferation and metastasis of HDAC1, HDAC2, HDAC3, HDAC8, HDAC11 five subtypes HDAC enzymes. After the substrate containing an acetylated lysine side chain and HDAC enzyme are labeled with a fluorescent label, the fluorescent substrate is de acetyl. The fluorescent labeled substrate is cleaved by the enzyme, and the fluorescent substance is released, which generates 460 nm emission light under the excitation of 360 nm light.
HDAC substrate was diluted with reaction buffer to 200M (reaction concentration of 20M), the HDAC enzyme was diluted to the appropriate concentration, then added different concentrations of the test compounds and acted at 37° C. 30 minutes, and then added the same volume of 2-times concentration substrate developing solution (developer), incubated at room temperature for 15 minutes. Finally, the last reading measured with a microplate plate reader, excitation light was 360 nm, the emitted light was 460 nm, data processing software was Prime 4, and the results are shown in Table 1.

[1] = tested on: MOLT-4 (human acute lymphoblastic leukemia cells); experiment: MTT cancer cell growth inhibition; type: cell-based; settings: Homo sapiens, MOLT-4, 72 h, read-out: GI50 Mol
Source text: (§1) MTT assay principle is yellow MTT can penetrate membrane into the cell, succinic dehydrogenase of the mitochondria in living cells can make exogenous MTT reduction of insoluble in water of blue-violet acicular formazan for crystallization and deposition in the cell, crystallization can be dissolved dimethyl sulfoxide (DMSO) solution, detected its absorbance at 490 nm/570 nm wavelength by enzyme-linked immunosorbent assay, which can reflect the number of cells.
(§2) Using DMEM+10% FBS culture medium or using 1640+10% FBS culture, respectively.
(§3) a) Cells were seeded in 96-well plates with the inoculation of 1500/well, 190 μl/hole, 37° C., 5% of CO2 incubator overnight;
(§4) b) The next day each well was added 10 μl of different drugs. The final concentration of drug was 10^−5˜10^−10M, three parallel holes; 37° C., 5% CO2 culture incubator for 72 hours incubation;
(§5) c) Per well was added 20 μl 5 mg/ml of MTT, 37° C., 5% CO2 culture incubator for 4 hours incubation;
(§6) d) The supernatant was discarded. Each well was added 100 μl of DMSO and oscillation;
(§7) e) 570 nm readings. Calculate cell viability. GI50 calculation based on the results.

[2] = tested on: HCC827 (human non-small cell lung cancer cells); experiment: MTT cancer cell growth inhibition; type: cell-based; settings: Homo sapiens, HCC827, 72 h, read-out: GI50 HCC827
Source text: as §1, §2, §3, §4, §5, §6, §7

[3] = tested on: Hela (human cervical cancer cells); experiment: MTT cancer cell growth inhibition; type: cell-based; settings: read-out: GI50 Hela
Source text: as §1, §2, §3, §4, §5, §6, §7

[4] = tested on: BGC-823 (human gastric cancer cells); experiment: MTT cancer cell growth inhibition; type: cell-based; settings: read-out: GI50 BG
Source text: as §1, §2, §3, §4, §5, §6, §7

[5] = tested on: SGC-7901 (human gastric cancer cells); experiment: MTT cancer cell growth inhibition; type: cell-based; settings: read-out: GI50 SGC-7901
Source text: as §1, §2, §3, §4, §5, §6, §7

[6] = tested on: Bel-7402 (human hepatoma cells); experiment: MTT cancer cell growth inhibition; type: cell-based; settings: Homo sapiens, Bel-7402, 72 h, read-out: GI50 Bel-7402
Source text: as §1, §2, §3, §4, §5, §6, §7

[7] = tested on: DU145 (human prostate cancer cells); experiment: MTT cancer cell growth inhibition; type: cell-based; settings: Homo sapiens, DU-145, 72 h, read-out: GI50 Du1
Source text: as §1, §2, §3, §4, §5, §6, §7

[8] = tested on: lncap (prostate cancer cells); experiment: MTT cancer cell growth inhibition; type: cell-based; settings: read-out: GI50 lnca
Source text: as §1, §2, §3, §4, §5, §6, §7

[9] = tested on: A549 (human lung cancer cells); experiment: MTT cancer cell growth inhibition; type: cell-based; settings: Homo sapiens, A549, 72 h, read-out: GI50 A54
Source text: as §1, §2, §3, §4, §5, §6, §7

[10] = tested on: K562 (human leukemia cells); experiment: MTT cancer cell growth inhibition; type: cell-based; settings: read-out: GI50 K562
Source text: as §1, §2, §3, §4, §5, §6, §7

[11] = tested on: Huh-7 (human hepatoma cells); experiment: MTT cancer cell growth inhibition; type: cell-based; settings: Homo sapiens, Huh-7, 72 h, read-out: GI50 Huh-7
Source text: as §1, §2, §3, §4, §5, §6, §7

[12] = tested on: PANC-1 (Pac-1, human pancreatic cancer cells); experiment: MTT cancer cell growth inhibition; type: cell-based; settings: Homo sapiens, PANC-1, 72 h, read-out: GI50 PAN
Source text: as §1, §2, §3, §4, §5, §6, §7

[13] = tested on: KBM5-T315I (human chronic myelogenous leukemia); experiment: MTT cancer cell growth inhibition; type: cell-based; settings: Homo sapiens, 72 h, read-out: GI50 KBM5-T315I
Source text: as §1, §2, §3, §4, §5, §6, §7

[14] = tested on: U937 (human leukemia cells); experiment: MTT cancer cell growth inhibition; type: cell-based; settings: Homo sapiens, U-937, 72 h, read-out: GI50 U93
Source text: as §1, §2, §3, §4, §5, §6, §7

[15] = tested on: HT1080 (human fibrosarcoma cells); experiment: MTT cancer cell growth inhibition; type: cell-based; settings: Homo sapiens, HT-1080, 72 h, read-out: GI50 HT1
Source text: as §1, §2, §3, §4, §5, §6, §7

[16] = tested on: H1975 (non-small cell lung adenocarcinoma); experiment: MTT cancer cell growth inhibition; type: cell-based; settings: Homo sapiens, NCI-H1975, 72 h, read-out: GI50 H1975
Source text: as §1, §2, §3, §4, §5, §6, §7

[17] = tested on: MCF-7 (human breast cancer cells); experiment: MTT cancer cell growth inhibition; type: cell-based; settings: Homo sapiens, MCF7, 72 h, 72 hours incubation, read-out: GI50 MCF
Source text: as §1, §2, §3, §4, §5, §6, §7

[18] = tested on: MDA-MB-231 (breast cancer cells); experiment: MTT cancer cell growth inhibition; type: cell-based
Source text: as §1, §2, §3, §4, §5, §6, §7

[19] = tested on: KBM-5 (human chronic myelogenous leukemia); experiment: MTT cancer cell growth inhibition; type: cell-based; settings: read-out: GI50 KBM-5
Source text: as §1, §2, §3, §4, §5, §6, §7

[20] = tested on: N-87 (human gastric cancer cells); experiment: MTT cancer cell growth inhibition; type: cell-based; settings: read-out: GI50 N-87
Source text: as §1, §2, §3, §4, §5, §6, §7

[21] = MTT, 72 hours incubation, HCC827 cells
[22] = Homo sapiens, SGC-7901, 72 h, MTT, 72 hours incubation, SGC-7901 cells
[23] = MTT, 72 hours incubation, Bel-7402 cells
[24] = Homo sapiens, K562, 72 h, MTT, 72 hours incubation, K562 cells
[25] = MTT, 72 hours incubation, Huh-7 cells
[26] = MTT, 72 hours incubation, KBM5-T315I cells
[27] = MTT, 72 hours incubation, H1975 cells
[28] = Homo sapiens, MDA-MB-231, 72 h, read-out: GI50 MDA-MB-231, MTT, 72 hours incubation, MDA-MB-231 cells
[29] = Homo sapiens, KBM5, 72 h, MTT, 72 hours incubation, KBM-5 cells
[30] = Homo sapiens, 72 h, MTT, 72 hours incubation, N-87 cells
[31] = MOLT-4 cells, MTT, 72 hours incubation
[32] = DU145 cells, MTT, 72 hours incubation
[33] = A549 cells, MTT, 72 hours incubation
[34] = PANC-1 cells, MTT, 72 hours incubation
[35] = U937 cells, MTT, 72 hours incubation
[36] = HT1080 cells, MTT, 72 hours incubation

Compound | IC50 HDAC7 (HDAC7) | GI50 [2, 21] [nM] | GI50 [5, 22] [nM] | GI50 [6, 23] [nM] | GI50 [10, 24] [nM] | GI50 [11, 25] [nM] | GI50 [13, 26] [nM] | GI50 [16, 27] [nM] | GI50 [18, 28] [nM] | GI50 [19, 29] [nM] | GI50 [20, 30] [nM] | GI50 [1, 31] [nM] | GI50 [7, 32] [nM] | GI50 [9, 33] [nM] | GI50 [12, 34] [nM] | GI50 [14, 35] [nM] | GI50 [15, 36] [nM] | other results
C/C=C1\NC(=O)c2ccc(F)c(n2)CNC(=O)C[C@@H](/C=C/CCSC(C)=O)OC(=O)[C@H](Cc2ccc(O)cc2)NC1=O [Compound 83] | no activity | 93 | 53 | 93 | 43 | 37 | 29 | 53 | 37 | 38 | 16 | – | – | – | – | – | – | GI50 ([1]; MTT, 72 hours incubation): 30 nM; GI50 ([3]; Homo sapiens, HeLa, 72 h, MTT, 72 hours incubation): 30 nM; GI50 ([4]; Homo sapiens, BGC-823, 72 h, MTT, 72 hours incubation): 10 nM; GI50 ([7]; MTT, 72 hours incubation): 40 nM; GI50 ([8]; Homo sapiens, LNCaP, 72 h, MTT, 72 hours incubation): 30 nM; GI50 ([9]; MTT, 72 hours incubation): 50 nM; GI50 ([12]; MTT, 72 hours incubation): 90 nM; GI50 ([14]; MTT, 72 hours incubation): 50 nM; GI50 ([15]; MTT, 72 hours incubation): 90 nM; GI50 [17]: 20 nM
C/C=C1\NC(=O)c2cc(SC)cc(n2)CNC(=O)C[C@@H](/C=C/CCSC(C)=O)OC(=O)[C@H](C)NC1=O [Compound 184] | no activity | 62 | – | 56 | – | 38 | 43 | 58 | – | – | – | 30 | 60 | 110 | 60 | 30 | 80 | GI50 ([3]; Hela cells, MTT, 72 hours incubation): 20 nM; GI50 ([4]; BGC-823 cells, MTT, 72 hours incubation): 50 nM; GI50 ([5]; MTT, 72 hours incubation, SGC-7901 cells): 11 nM; GI50 ([8]; lncap cells, MTT, 72 hours incubation): 20 nM; GI50 ([10]; MTT, 72 hours incubation, K562 cells): 23 nM; GI50 ([18]; read-out: GI50 MDA-MB-231, MTT, 72 hours incubation, MDA-MB-231 cells): 74 nM; GI50 ([19]; MTT, 72 hours incubation, KBM-5 cells): 78 nM; GI50 ([20]; MTT, 72 hours incubation, N-87 cells): 42 nM
C=C1NC(=O)c2ccc(SC)c(n2)CNC(=O)C[C@@H](/C=C/CCSC(C)=O)OC(=O)[C@H](C(C)C)NC1=O [Compound 206] | no activity | 12 | 82 | 48 | 61 | 39 | 39 | 75 | 76 | 27 | 97 | 20 | 10 | 50 | 20 | 60 | 10 | GI50 ([4]; Homo sapiens, BGC-823, 72 h, BGC-823 cells, MTT, 72 hours incubation): 20 nM; GI50 ([8]; Homo sapiens, LNCaP, 72 h, lncap cells, MTT, 72 hours incubation): 70 nM; GI50 ([17]; MCF-7 cells): 30 nM
O=C(CCCCCCC(=O)Nc1ccccc1)NO [SAHA, suberoylanilide hydroxamic acid, reference compound] | no activity | – | – | – | – | – | – | – | – | – | – | – | – | – | – | – | – | GI50 [1]: 10000 nM; GI50 [2]: 16700 nM; GI50 ([3]; Homo sapiens, HeLa, 72 h): 30200 nM; GI50 ([4]; Homo sapiens, BGC-823, 72 h): 5230 nM; GI50 ([5]; Homo sapiens, SGC-7901, 72 h): 12500 nM; GI50 [6]: 12700 nM; GI50 [7]: 15200 nM; GI50 ([8]; Homo sapiens, LNCaP, 72 h): 4610 nM; GI50 [9]: 8530 nM; GI50 ([10]; Homo sapiens, K562, 72 h): 10100 nM; GI50 [11]: 18300 nM; GI50 [12]: 7620 nM; GI50 [13]: 86700 nM; GI50 [14]: 2350 nM; GI50 [15]: 3970 nM; GI50 [16]: 15200 nM; GI50 ([18]; Homo sapiens, MDA-MB-231, 72 h, read-out: GI50 MDA-MB-231): 22500 nM; GI50 ([19]; Homo sapiens, KBM5, 72 h): 11200 nM; GI50 ([20]; Homo sapiens, 72 h): 13200 nM
